Here are results for 1 sequence from publication PMC10325900, “A conserved motif in the disordered linker of human MLH1 is vital for DNA mismatch repair and its function is diminished by a cancer family mutation” (Nucleic Acids Research, 2023).

“Also recorded” adds a separate entry of the source. No end group written: not given here.

For this test, the target named is T1, MLH1-ΔConMot-PMS2 (Homo sapiens, UniProt P40692+P54278, DEL377-396).
T1 construct: The pcDNA3 expression vector containing the entire open reading frame of human MLH1; expressed in transfected cells; host or cells: HEK293T (MLH1-deficient), transiently co-transfected
T1 sequence (P40692 with tags, fused parts or gaps DEL377-396): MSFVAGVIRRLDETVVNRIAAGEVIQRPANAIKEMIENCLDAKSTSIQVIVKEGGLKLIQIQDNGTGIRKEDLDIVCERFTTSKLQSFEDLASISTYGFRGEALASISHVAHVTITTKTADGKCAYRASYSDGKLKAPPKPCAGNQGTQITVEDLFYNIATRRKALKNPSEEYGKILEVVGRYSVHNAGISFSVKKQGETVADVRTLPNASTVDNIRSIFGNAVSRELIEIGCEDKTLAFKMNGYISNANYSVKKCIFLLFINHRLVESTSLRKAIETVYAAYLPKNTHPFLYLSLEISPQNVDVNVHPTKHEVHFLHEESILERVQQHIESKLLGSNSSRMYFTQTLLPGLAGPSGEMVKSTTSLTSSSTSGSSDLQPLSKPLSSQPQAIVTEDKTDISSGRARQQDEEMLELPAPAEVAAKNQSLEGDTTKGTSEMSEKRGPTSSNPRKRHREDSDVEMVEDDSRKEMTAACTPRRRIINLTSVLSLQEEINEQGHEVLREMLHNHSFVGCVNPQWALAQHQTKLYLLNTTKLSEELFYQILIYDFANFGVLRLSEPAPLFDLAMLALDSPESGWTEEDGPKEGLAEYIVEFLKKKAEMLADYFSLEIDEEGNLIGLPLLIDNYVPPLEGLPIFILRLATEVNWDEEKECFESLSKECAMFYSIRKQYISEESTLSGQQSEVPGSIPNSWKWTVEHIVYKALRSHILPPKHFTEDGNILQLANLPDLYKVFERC
T1 sequence (P54278 1-862 partner): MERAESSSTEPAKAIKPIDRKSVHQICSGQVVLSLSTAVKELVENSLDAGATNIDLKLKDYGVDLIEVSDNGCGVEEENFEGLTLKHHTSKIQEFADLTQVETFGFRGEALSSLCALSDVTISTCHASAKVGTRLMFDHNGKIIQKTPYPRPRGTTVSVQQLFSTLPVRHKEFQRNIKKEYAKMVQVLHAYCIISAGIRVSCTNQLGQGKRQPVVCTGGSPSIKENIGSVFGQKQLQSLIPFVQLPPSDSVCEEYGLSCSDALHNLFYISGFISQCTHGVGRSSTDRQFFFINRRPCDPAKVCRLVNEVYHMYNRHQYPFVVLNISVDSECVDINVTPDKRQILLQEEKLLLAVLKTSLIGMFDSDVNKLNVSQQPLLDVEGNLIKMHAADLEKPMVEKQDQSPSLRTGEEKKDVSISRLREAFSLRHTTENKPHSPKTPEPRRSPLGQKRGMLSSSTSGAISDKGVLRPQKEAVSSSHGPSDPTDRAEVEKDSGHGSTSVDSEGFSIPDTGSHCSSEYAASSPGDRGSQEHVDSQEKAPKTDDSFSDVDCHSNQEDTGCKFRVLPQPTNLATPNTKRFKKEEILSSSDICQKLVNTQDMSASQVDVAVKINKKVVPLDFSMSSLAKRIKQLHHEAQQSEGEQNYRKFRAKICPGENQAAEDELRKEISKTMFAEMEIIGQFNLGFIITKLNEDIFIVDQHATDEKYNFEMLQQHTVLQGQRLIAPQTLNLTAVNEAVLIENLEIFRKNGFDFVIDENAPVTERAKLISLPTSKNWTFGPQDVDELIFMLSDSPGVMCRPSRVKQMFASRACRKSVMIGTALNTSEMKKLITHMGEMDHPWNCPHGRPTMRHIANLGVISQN
Nature of the test: DNA mismatch repair (MMR) complementation assay with peptide, MLH1-ΔConMot variant. The class given is biochemical. The procedure: Mismatch repair activity was assessed as described in detail before ([79],[81]) (Supplementary Figure S3). […] Mismatched DNA plasmid substrate (Supplementary Figure S3) prepared according to previously published procedures ([81–83]) was added, and reactions in a final volume of 25 μl were incubated at 37°C for 15 min. Repair efficiency was scored by purifying the mismatched DNA plasmid from the reaction and assessing the fraction of homoduplex sequence by restriction digestion of the mismatched site using EcoRV. The substrate was additionally linearized with AseI.
For complementation assays with peptide, the indicated peptide(s) were used at stock concentrations of 50 or 500 μM in HEPES–KOH 20 mM pH 7.6 and supplemented to the MMR reactions.
Figure 4. Reaction of DNA mismatch repair to addition of ConMot peptide. (A) Nuclear extract of MLH1-proficient HEK293 cells was used for performing the DNA mismatch repair reaction. Four reactions were undertaken, with two reactions supplemented with either 7.5 μM or 75 μM ConMot-32 peptide. A negative control reaction was performed by omitting the 37°C repair incubation. (B) MMR reactions were performed with nuclear extract of MLH1-deficient HEK293T cells supplemented with extract of cells transfected either with wildtype MLH1-PMS2 (positive control) or with MLH1-ΔConMot-PMS2. To these MMR reactions, different peptides were added at a concentration of 75 μM: A ConMot-32 peptide (A), a Scramble-32 peptide (B) in which the conserved ConMot sequence is scrambled, and a short ConMot-20 peptide (C) that only contains the twenty highly conserved ConMot residues. The peptide sequences are given below the gel image. (C) The concentration-dependence of the MMR-activating effect of the ConMot-32 peptide observed in (B) was measured over a concentration range from 1–75 μM. (D) Theoretical binding curves of a ligand (peptide) to a protein were calculated for dissociation constants (KD) of 1, 5 and 10 μM for a protein concentration as present for MLH1-PMS2 in the MMR assay reactions (see also Supplementary Figure S3). Into this diagram, the average MMR activities (and standard deviations) measured in >3 of the experiment exemplarily shown in C were introduced as bars at ConMot-32 peptide concentrations of 1, 2.5, 7.5, 18 and 75 μM.
Second, we used extract of the repair-deficient cell line HEK293T supplemented with either wildtype MutLα (MLH1-PMS2) or the ΔConMot deletion variant, corresponding to experiment shown in Figure 2B. In this experiment, we again added ConMot peptide.
We investigated the effect of the ConMot peptide more closely by titrating the required peptide concentrations for activation. We determined that the mismatch repair reactions performed in this study contained approximately 280 fmol MLH1 (Supplementary Figure S4A and B), which is in good agreement with previous quantifications of MLH1-PMS2 in cells and extracts ([96]). […] Dissociation constants (KD) for peptides to proteins are typically in the range of 1–10 μM ([97]). We compared the measured concentration-dependent MMR activities with theoretical binding curves of (peptide) ligands to (protein) substrates for KD values of 1, 5 and 10 μM (Supplementary Figure S4C) at the determined MLH1 concentration. […] It is therefore plausible that a binding reaction of the ConMot peptide (to a protein) underlies the restauration of MMR activity. […]
Deletion C on M ot (∆Co nMot) c.1129_1188del CTGCAGCCTCTGAGCAAA […]
Del et i on comp are (∆Compare) c.1221_1280del […] ACTGGACAGGGGTTTGCT
Scramble c.1147_1160delinsGAC ggtacgtTCCCGGGAACAGAAGCT atagtgtcCTGGTGGGCATAGACCT
p.(M383_D387delinsDTMVR) ACTATGGTAC G T TATC
ConMot hy bri d gcataTCTGCAGCCTCTGAGCAA acagg[…]
Supplementary Table 1: Analyzed variant inf ormation.
Variant descriptions confer to HGVS format and refer to the MLH1 reference cDNA (NM_000249.4) […]

The mark [1] stands for this setting: ConMot-32, concentration range 1–75 μM, approximately 280 fmol MLH1 (11.1 nM), 37°C, 15 min, >3 experiments.

Regarding “SGSSDKVYAHQMVRTDSREQKLDAFLQPLSKP [ConMot-32]”, under setting [1], the “peptide concentration at which almost complete activation was achieved (MMR)” value amounted to 75 µM and the “peptide concentration at which increase in MMR activity became detectable” value is 1 µM. The EC50 (ConMot-32, concentration range 1–75 μM, approximately 280 fmol MLH1 (11.1 nM), 37°C, 15 min, >3 experiments, read-out: peptide concentration at which 50% activation was achieved (MMR)) was 7.5 µM. Further, the “effect of peptide on MMR (summary in Supplementary Table 2)” value (molar ratio 0-860-2300-8600 to hMLH1-PMS2, Tris-HCl pH 7.5, 5 mM Mg2+, 1.5 mM ATP) was “activating”. Also, the “restoration of DNA mismatch repair activity of the ΔConMot variant” value (peptide 75 μM (Figure 4B), HEK293T nuclear extract 50 μg + 5 μg transfected extract, 25 μl, 37°C, 15 min, EcoRV/AseI digestion, agarose gel, listed as ConMot-peptide) is “could be overcome; also recorded: possible to overcome the MMR-deficiency”.
